Data reported in patent US20250236617A1, “BICYCLIC TETRAHYDROTHIAZEPINE DERIVATIVES” (Hoffmann-La Roche Inc., priority 2022, published 2025).

Tests used:
primary human T-cells [1] = test: IL2 secretion measurements in CD3-stimulated T-cells; assay type: cell-based; conditions: CD3 condition; for Emax IL2 (% activation): 24 hours, 20 μM reference compound A1 = 100%; for EC50: Homo sapiens, T-cell, IL2 secretion after 24 hours, read-out: Tcell IL2 CD3 EC50
Summary of the method: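 Expanded primary human T-cells (100 k/well, RPMI + 5% human serum) on plate-bound anti-CD3 (donor-titrated) or PBS counter-screen wells, 5–6 pt dose response from 20 or 10 μM top (dilution factor 3.333), 0.2% DMSO final. IL-2 in 24 h supernatant by ProQuantum immunoassay or ELISA. Normalised to DMSO (0%) and 20 μM reference A1 (100%); EC50 and Emax from sigmoidal fit.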

primary human T-cells [2] = test: T-cell proliferation assay (CellTiter-Glo); assay type: cell-based; conditions: CD3 condition; for Emax proliferation (% activation): 5 days, 20 μM reference compound A1 = 100%; for EC50: Homo sapiens, T-cell, 120 h, proliferation after 5 days, CellTiter-Glo, read-out: Tcell Proliferation CD3 EC50

| Structure (SMILES) | EC50 (primary human T-cells [1]) [nM] | Emax IL2 (% activation) (primary human T-cells [1]) | Emax proliferation (% activation) (primary human T-cells [2]) | EC50 (primary human T-cells [2]) [nM] |
| --- | --- | --- | --- | --- |
| CC(C)(C#N)c1cncc(-c2cc3c(cc2F)S(=O)(=O)C[C@H](N)C(=O)N3Cc2ccc(-c3noc(C(F)(F)F)n3)cc2)c1 [Example 23, 2-[5-[(3R)-3-amino-8-fluoro-1,1,4-triketo-5-[4-[5-(trifluoromethyl)-1,2,4-oxadiazol-3-yl]benzyl]-2,3-dihydro-1λ6,5-benzothiazepin-7-yl]-3-pyridyl]-2-methyl-propionitrile] | 3540 | 213 | 204 | 933 |
| CC(C)(C)c1cnnc(-c2cc3c(cc2F)S(=O)(=O)C[C@H](N)C(=O)N3Cc2ccc(Cl)cc2)n1 [Example 11, (3R)-3-amino-7-(5-tert-butyl-1,2,4-triazin-3-yl)-5-[(4-chlorophenyl)methyl]-8-fluoro-1,1-dioxo-2,3-dihydro-1λ6,5-benzothiazepin-4-one] | 119 | 79 |  | 90 |
| CC(C)(C)c1cncc(-c2cc3c(cc2F)S(=O)(=O)C[C@H](N)C(=O)N3Cc2ccc(Cl)cc2)c1 [Example 2, (3R)-3-amino-7-(5-tert-butyl-3-pyridyl)-5-[(4-chlorophenyl)methyl]-8-fluoro-1,1-dioxo-2,3-dihydro-1λ6,5-benzothiazepin-4-one] | 459 | 109 |  | 81 |

Further lines, with some results ahead:

| EC50 (primary human T-cells [1]) [nM] | Structure (SMILES) | Emax IL2 (% activation) (primary human T-cells [1]) | Emax proliferation (% activation) (primary human T-cells [2]) | EC50 (primary human T-cells [2]) [nM] |
| --- | --- | --- | --- | --- |
| 4520 | CC(C)(c1cncc(-c2cc3c(cc2F)S(=O)(=O)C[C@H](N)C(=O)N3Cc2ccc(-c3noc(C(F)(F)F)n3)cc2)c1)S(C)(=O)=O [Example 25, (3R)-3-amino-8-fluoro-1,1-diketo-7-[5-(1-mesyl-1-methyl-ethyl)-3-pyridyl]-5-[4-[5-(trifluoromethyl)-1,2,4-oxadiazol-3-yl]benzyl]-2,3-dihydro-1λ6,5-benzothiazepin-4-one] | 168 | 120 | 526 |
| 763 | COc1ccc(-c2ccc(CN3C(=O)[C@@H](N)CS(=O)(=O)c4cc(F)c(-c5cnc(C)c(C)c5)cc43)cc2)cc1 [Example 28, (3R)-3-amino-7-(5,6-dimethyl-3-pyridyl)-8-fluoro-5-[[4-(4-methoxyphenyl)phenyl]methyl]-1,1-dioxo-2,3-dihydro-1λ6,5-benzothiazepin-4-one] | 237 | 155 | 81 |
